Assay in all cases: DTP human tumour cell line panel, 48 h
Experiment [1] has as its system M14 melanoma.
Experiment [2] concerns NCI/ADR-RES ovarian.
The test system of experiment [3] is A549 NSCLC.
Experiment [4] relates to SF-539 CNS.
For experiment [5], the system named is K-562 leukemia.
Experiment [6] has as its system SNB-75 CNS.
Experiment [7] concerns SF-295 CNS.
Experiment [8] relates to OVCAR-5 ovarian.
Experiment [9] concerns OVCAR-4 ovarian.
Experiment [10] concerns NCI-H460 lung.
For experiment [11], the system named is SN12C renal.
The test system of experiment [12] is HCC-2998 colon.
Experiment [13] has as its system MDA-MB-435.
Experiment [14] deals with COLO 205 colon.
For experiment [15], the system named is PC-3 prostate.
Experiment [16] has as its system UO-31 renal.
Experiment [17] relates to UACC-62 melanoma.
The subject of experiment [18] is NCI-H23 lung.
Experiment [19] has as its system EKVX NSCLC.
In experiment [20] the test system is HCT-116 colon.

“And” between values parts separate entries of the source, which are not always exact repeats. Identical values can stand only once.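 Test compounds were applied to cells in 96-well plates for 48 hours at 5 doses. The concentration for full growth arrest is given as TGI.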

Usually TGI stands for the concentration giving total growth inhibition. The low end stands for more potent growth arrest, the high end for less potent growth arrest. As to `CC(C)=CCC/C(C)=C/CC/C(C)=C/CC(CO)N(C)CC/C=C(\C)CCC=C(C)C` (stereo not drawn), the TGI stood at 3.75 µM in [1]; 16.4 µM in experiment [2]; 17.5 µM in experiment [3]; 9.76 µM in [4]; 3.7 µM in [5]; 25 µM in [6]. For the same compound, the TGI is 19.9 µM in [7]; 21.2 µM in experiment [8]; 22.4 µM in experiment [9]; 15.8 µM in [10]; 17.4 µM in experiment [11]; 10.8 µM in experiment [12]. Further, the concentration for total growth inhibition (TGI) in experiment [13] was 13.2 µM; in experiment [14], 6.85 µM; in experiment [15] it was 20.2 µM; in experiment [16], 17.9 µM; in [17], 29.9 µM; in experiment [18], 21.8 µM. Moreover, the TGI in [19] was 23.4 µM; in [20] it was 6.46 µM.

For the compound `[N-]=[N+]=CC(=O)OC1Cc2ccccc2C1`, the TGI in experiment [1], in [2], in experiment [3], in experiment [4], in [5] and in experiment [6] was above 100 µM in each case. Also, the concentration for total growth inhibition (TGI) in experiment [7], in [8], in experiment [9], in experiment [10], in [11] and in experiment [12] was above 100 µM throughout. Besides, the TGI is above 100 µM in experiment [13]; above 100 µM in experiment [14]; above 100 µM in experiment [15]; 35.8 µM in [16]; above 100 µM in [17]; above 100 µM in experiment [18]. Besides, the TGI in experiment [19] and in [20] was above 100 µM each time.

For `CN(C)/N=C1/CCC(C(F)(F)F)(C(F)(F)F)O1`, the TGI in [1] was 68.1 µM; in experiment [2], 69.6 µM; in [3] it was above 100 µM; in experiment [4], above 100 µM; in experiment [5] it was above 100 µM; in [6], 97.5 µM. In addition, the TGI was above 100 µM in experiment [7]; above 100 µM in experiment [8]; above 100 µM in [9]; above 100 µM in experiment [10]; 81 µM in experiment [11]; above 100 µM in experiment [12]. The TGI was 76 µM in [13]; 31.2 µM in [14]; above 100 µM in experiment [15]; 98.2 µM in [16]; 68.8 µM in [17]; 98.4 µM in experiment [18]. In addition, the TGI is above 100 µM in experiment [19] and 94 µM in experiment [20].

For `COc1cccc2nc3c(C(=O)NCCN(C)C)cccc3cc12`, the TGI came out at 4.37 µM in experiment [1]; 9.17 µM in experiment [2]; 4.49 µM in [3]; 7.9 µM in [4]; 13.9 µM in experiment [5]; 14.4 µM in experiment [6]. Moreover, the TGI in experiment [7] was 10.8 µM; in experiment [8], 6.5 µM; in experiment [9], 4.8 µM; in experiment [10] it was 4.44 µM; in [11], 8.35 µM; in [12], 12.3 µM. Further, the TGI is 9.41 µM in [13]; 2.55 µM in experiment [14]; 10.2 µM in experiment [15]; 2.99 µM in experiment [16]; 7.77 µM in experiment [17]; 6.05 µM in [18]. The TGI was 9.64 µM in [19] and 14.9 µM in [20].

On to `CCOC(=O)c1sc2c(c1OC(=O)c1ccc(OC)cc1)c(=O)n(-c1ccccc1)c(=S)n2-c1ccccc1`, for which the TGI in experiment [1] was above 100 µM; in [2], 72.2 µM; in experiment [3] it was above 100 µM; in [4] it was above 100 µM; in experiment [5], above 100 µM; in experiment [6], above 100 µM. The total growth inhibition concentration (TGI) in experiment [7] was above 100 µM; in experiment [8], above 100 µM; in experiment [9] it was 24.6 µM; in experiment [10], above 100 µM; in experiment [11] it was above 100 µM; in experiment [12] it was 38 µM. In addition, the TGI in experiment [13], in experiment [14], in [15], in [17], in experiment [18] and in experiment [19] was above 100 µM throughout. In experiment [20], this compound gave a TGI above 100 µM.

With `COC(=O)c1nsc(OC)c1Cl`, the TGI in [1], in experiment [2], in experiment [3], in [4], in experiment [5] and in experiment [6] was above 100 µM in each case. In addition, the TGI in experiment [7], in experiment [8], in experiment [9], in experiment [11], in [12] and in experiment [13] was above 100 µM in each case. Also, the TGI in experiment [14], in [15], in experiment [16], in experiment [17], in experiment [18] and in experiment [19] was above 100 µM each time. The compound also registered a TGI in [20] above 100 µM.

As to `NCC(=O)Nc1ccc(S(=O)(=O)O)c2cc(S(=O)(=O)O)cc(S(=O)(=O)O)c12`, the TGI in experiment [1], in [2], in experiment [3], in [4], in [5] and in [6] was above 100 µM throughout. Moreover, the TGI in experiment [7], in experiment [8], in experiment [9], in experiment [11], in experiment [12] and in experiment [13] was above 100 µM throughout. In addition, the TGI in experiment [14], in experiment [15], in experiment [16], in [17], in experiment [18] and in experiment [19] was above 100 µM each time. Moreover, the TGI in [20] is above 100 µM.

Take `CCC(=O)O[C@H]1CC[C@H]2[C@@H]3CCC4=C/C(=N/OC(=O)c5cccc6cc7ccccc7nc56)CC[C@]4(C)[C@H]3CC[C@]12C`: the TGI in [1], in [2], in [3], in experiment [4], in [5] and in experiment [6] was above 100 µM throughout. Also, the TGI in experiment [8], in [9], in experiment [10], in experiment [11], in experiment [12] and in [13] was above 100 µM throughout. The TGI in [14], in experiment [15], in [17], in experiment [18], in experiment [19] and in experiment [20] was above 100 µM throughout.

In the case of `CC(=O)NC1=N/C(=C\c2ccc(Cl)cc2)C(=O)N1/C=C1\C(=O)Oc2ccccc2C1=O`, the TGI in experiment [1], in experiment [2], in experiment [3], in [4], in [5] and in [6] was above 100 µM in each case. For the same compound, the TGI in [7], in experiment [8], in [9], in experiment [10], in experiment [11] and in experiment [12] was above 100 µM throughout. Moreover, the TGI in experiment [13], in experiment [14], in [15], in [17], in experiment [18] and in experiment [19] was above 100 µM in each case. Moreover, the TGI in experiment [20] was above 100 µM.

Regarding `O=C1NC(N/N=C\C(O)C(O)C(O)C(O)CO)=N/C1=C/c1ccc(Cl)cc1` (stereo not drawn), the TGI in [1], in experiment [2], in [3], in experiment [4], in [5] and in experiment [6] was above 100 µM throughout. Moreover, the TGI in [7] is above 100 µM; in [8], above 100 µM; in experiment [9] it was > 100 µM and 50.7 µM; in [10], above 100 µM; in experiment [11] it was above 100 µM; in experiment [12], above 100 µM. Moreover, the TGI in experiment [13], in experiment [14], in experiment [15], in experiment [16], in experiment [18] and in experiment [19] was above 100 µM in each case. For the same compound, the TGI in experiment [20] is above 100 µM.

Take `CC(C)[Si]1(C(C)C)OCC2OC3(CO)C(Oc4nc(=O)ccn43)C2O[Si](C(C)C)(C(C)C)O1` (stereo not drawn): the TGI in [1] was determined as 30.4 µM; in [2], 41.6 µM; in experiment [4], 28.3 µM; in [5], 45.5 µM; in experiment [6], 30.7 µM; in experiment [7] it was 29.6 µM. Moreover, the TGI came to 26.7 µM in [9]; 29.2 µM in experiment [10]; 25.4 µM in [12]; 31.4 µM in experiment [13]; 22 µM in [14]; 17.7 µM in experiment [15]. Besides, the TGI in experiment [16] stood at 27.2 µM; in [17], 26.8 µM; in experiment [18] it was 30.1 µM; in experiment [19], 35 µM; in experiment [20], 24.7 µM.

`COc1ccc(/C=C2\c3cc(OC)c(OC)cc3CCN2C(=O)c2ccccc2)cc1OC`: the TGI is above 100 µM in experiment [1]; 76.4 µM in experiment [2]; above 100 µM in [3]; above 100 µM in [4]; above 100 µM in experiment [5]; above 100 µM in [6]. Moreover, the TGI was above 100 µM in experiment [7]; above 100 µM in [8]; 87.6 µM in experiment [10]; above 100 µM in [11]; above 100 µM in experiment [12]; 49 µM in [13]. Besides, the TGI in experiment [14], in experiment [15], in [16], in [17], in [18] and in experiment [19] was above 100 µM throughout. In addition, the TGI in experiment [20] was above 100 µM.

Consider `O=c1oc2c/c(=C\c3ccc([N+](=O)[O-])cc3)c(=O)c3cccc1c3-2`, for which the TGI is above 100 µM in [1]; above 100 µM in experiment [2]; above 100 µM in experiment [3]; above 100 µM in [5]; 88.6 µM in [6]; above 100 µM in experiment [7]. The TGI in experiment [8], in [10], in [11], in experiment [12], in [13] and in experiment [14] was above 100 µM throughout. Also, the TGI in experiment [15], in experiment [16], in [17], in experiment [18], in experiment [19] and in experiment [20] was above 100 µM throughout.

Regarding `Cc1cc(C(F)(F)F)cc(-n2nc(NS(=O)(=O)c3cc(C)c(Cl)cc3S)nc2N)n1`, the TGI in experiment [1] is above 100 µM; in experiment [2], 94.1 µM; in experiment [3], above 100 µM; in experiment [5], above 100 µM; in experiment [6], above 100 µM; in [7] it was above 100 µM. The TGI in experiment [9] was above 100 µM; in experiment [10], 70.7 µM; in [11], above 100 µM; in experiment [12], above 100 µM; in experiment [13] it was above 100 µM; in experiment [14], above 100 µM. Further, the TGI in experiment [15], in experiment [17], in experiment [19] and in experiment [20] was above 100 µM throughout.

These data come from PubChem BioAssay (NCI).
